A value given as a limit tells only on which side of the number the result lay.

This note sets out measurements from US10125135B2, “Chemical compounds” (AstraZeneca AB, priority 2016, dated 2018).

Chain of ERα receptor in MCF-7 human ductal carcinoma breast cell line (P03372 whole entry): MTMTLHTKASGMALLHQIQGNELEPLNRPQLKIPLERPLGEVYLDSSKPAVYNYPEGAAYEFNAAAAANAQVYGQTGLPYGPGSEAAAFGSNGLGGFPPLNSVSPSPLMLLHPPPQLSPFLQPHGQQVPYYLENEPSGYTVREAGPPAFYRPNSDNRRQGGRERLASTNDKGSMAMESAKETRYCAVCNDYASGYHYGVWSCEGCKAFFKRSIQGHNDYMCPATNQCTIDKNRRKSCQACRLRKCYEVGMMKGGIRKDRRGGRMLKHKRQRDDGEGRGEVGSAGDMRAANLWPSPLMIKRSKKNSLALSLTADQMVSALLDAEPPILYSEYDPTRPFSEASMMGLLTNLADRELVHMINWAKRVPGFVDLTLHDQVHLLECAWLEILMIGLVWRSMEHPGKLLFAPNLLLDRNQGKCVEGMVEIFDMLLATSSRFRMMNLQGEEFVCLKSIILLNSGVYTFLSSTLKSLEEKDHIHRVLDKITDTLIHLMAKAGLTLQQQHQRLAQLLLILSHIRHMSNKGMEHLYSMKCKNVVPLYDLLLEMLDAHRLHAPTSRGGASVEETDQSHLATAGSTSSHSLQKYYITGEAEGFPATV

For the first experiment, the target named is ERα receptor in MCF-7 human ductal carcinoma breast cell line (Homo sapiens (Human), UniProt P03372). Description: MCF-7 ER down regulation assay (immuno-fluorescence). Type of experiment: cell-based. The following applies: MCF-7 cells, 18-22 hours incubation; read-out: ER down regulation IC50 value. The protocol:
MCF-7 ER Down Regulation Assay
The ability of compounds to down-regulate Estrogen Receptor (ER) numbers was assessed in a cell based immuno-fluorescence assay using the MCF-7 human ductal carcinoma breast cell line. MCF-7 cells were revived directly from a cryovial (approx 5×10^6 cells) in Assay Medium (phenol red free Dulbecco's Modified Eagle's medium (DMEM) (Sigma D5921) containing 2mM L-Glutamine and 5% (v/v) Charcoal/Dextran treated foetal calf serum. Cells were syringed once using a sterile 18 G×1.5 inch (1.2×40 mm) broad gauge needle and cell density was measured using a Coulter Counter (Beckman). Cells were further diluted in Assay Medium to a density of 3.75×10^4 cells per mL and 40 μL per well added to transparent bottomed, black, tissue culture treated 384 well plates (Costar, No. 3712) using a Thermo Scientific Matrix WellMate or Thermo Multidrop. Following cell seeding, plates were incubated overnight at 37° C., 5% CO2 (Liconic carousel incubator). Test data was generated using the LabCyte Echo™ model 555 compound reformatter which is part of an automated workcell (Integrated Echo 2 workcell). 10 mM compound stock solutions of the test compounds were used to generate a 384 well compound dosing plate (Labcyte P-05525-CV1). […] 40 μΛ of DMSO added to wells in row P on the source plate allow for DMSO normalisation across the dose range. To dose the control wells 40 μL of DMSO was added to row O1 and 40 μL of 100 μM fulvestrant in DMSO was added to row O3 on the compound source plate. […] Compounds were dispensed onto the cell plates with a compound source plate prepared as above producing a 12 pt duplicate 3 μM to 3 pM dose range with 3 fold dilutions and one final 10 fold dilution using the Integrated Echo 2 workcell. […] Cells were fixed at room temperature for 20 mins before being washed two times with 250 μL PBS/Proclin (PBS with a Biocide preservative) using a BioTek platewasher, 40 μL of PBS/Proclin was then added to all wells and the plates stored at 4° C. The fixing method described above was carried out on the Integrated Echo 2 workcell. Immunostaining was performed using an automated AutoElisa workcell. The PBS/Proclin was aspirated from all wells and the cells permeabilised with 40 μL PBS containing 0.5% Tween™ 20 (v/v) for 1 hour at room temperature. The plates were washed three times in 250 μL of PBS/0.05% (v/v) Tween 20 with Proclin (PBST with a Biocide preservative) and then 20 μL of ERα (SP1) Rabbit monoclonal antibody (Thermofisher) 1:1000 in PBS/Tween™/3% (w/v) Bovine Serum Albumin was added. The plates were incubated overnight at 4° C. (Liconic carousel incubator) and then washed three times in 250 μL of PBS/0.05% (v/v) Tween™ 20 with Proclin (PBST). The plates were then incubated with 20 μL/well of a goat anti-rabbit IgG AlexaFluor 594 or goat anti-rabbit AlexaFluor 488 antibody (Molecular Probes) with Hoechst at 1:5000 in PBS/Tween™/3% (w/v) Bovine Serum Albumin for lhour at room temperature. The plates were then washed three times in 250 μL of PBS/0.05% (v/v) Tween™ 20 with Proclin (PBST with a Biocide preservative). 20 μL of PBS was added to each well and the plates covered with a black plate seal and stored at 4° C. before being read. Plates were read using a Cellomics Arrayscan reading the 594 nm (24 hr time point) or 488 nm (5 hr timepoint) fluorescence to measure the ERα receptor level in each well. The mean total intensity was normalized for cell number giving the total intensity per cell.
In the case of `COc1cc(OCCN2CC(CF)C2)ccc1[C@@H]1c2ccc3[nH]ncc3c2C[C@@H](C)N1CC(F)(F)CF` [Example 22, (6S,8R)-6-(4-(2-(3-(fluoromethyl)azetidin-1-yl)ethoxy)-2-methoxyphenyl)-8-methyl-7-(2,2,3-trifluoropropyl)-6,7,8,9-tetrahydro-3H-pyrazolo[4,3-f]isoquinoline], the DC50 was 0.15 nM.

For `COCC(F)(F)CN1[C@H](c2ccc(OCCN3CC(CF)C3)cc2OC)c2ccc3[nH]ncc3c2C[C@H]1C` [Example 15, (6S,8R)-7-(2,2-difluoro-3-methoxypropyl)-6-(4-(2-(3-(fluoromethyl)azetidin-1-yl)ethoxy)-2-methoxyphenyl)-8-methyl-6,7,8,9-tetrahydro-3H-pyrazolo[4,3-f]isoquinoline], the DC50 was 0.091 nM.

As for `COc1nc(OCCN2CC(CF)C2)ccc1[C@@H]1c2ccc3[nH]ncc3c2C[C@@H](C)N1CC1(F)CC1` [Example 46, (6S,8R)-7-((1-fluorocyclopropyl)methyl)-6-(6-(2-(3-(fluoromethyl)azetidin-1-yl)ethoxy)-2-methoxypyridin-3-yl)-8-methyl-6,7,8,9-tetrahydro-3H-pyrazolo[4,3-f]isoquinoline], the DC50 turned out to be 0.14 nM.

As for `COc1cc(OCCN2CC(CF)C2)cc(F)c1[C@@H]1c2ccc3[nH]ncc3c2C[C@@H](C)N1CC(F)(F)CO` [Example 26, 2,2-difluoro-3-((6S,8R)-6-(2-fluoro-4-(2-(3-(fluoromethyl)azetidin-1-yl)ethoxy)-6-methoxyphenyl)-8-methyl-8,9-dihydro-3H-pyrazolo[4,3-f]isoquinolin-7(6H)-yl)propan-1-ol], the DC50 turned out to be 0.13 nM.

Turning to `CC1(C)Cc2c(ccc3[nH]ncc23)C(c2ccc(OCCN3CC(CF)C3)cn2)N1CC(F)F` (centres unmarked) [Example 45, 7-(2,2-difluoroethyl)-6-(5-(2-(3-(fluoromethyl)azetidin-1-yl)ethoxy)pyridin-2-yl)-8,8-dimethyl-6,7,8,9-tetrahydro-3H-pyrazolo[4,3-f]isoquinoline], the DC50 was 3.1 nM.

Regarding `C[C@@H]1Cc2c(ccc3[nH]ncc23)[C@@H](c2c(F)cc(OCCN3CC(CF)C3)cc2F)N1CC(F)CF` (single isomer, unassigned) [Example 35], the DC50 worked out at 0.26 nM.

Take `COc1cc(OCCN2CC(CF)C2)ccc1[C@@H]1c2ccc3[nH]ncc3c2C[C@@H](C)N1CC1(F)COC1` [Example 13, (6S,8R)-6-(4-(2-(3-(fluoromethyl)azetidin-1-yl)ethoxy)-2-methoxyphenyl)-7-((3-fluorooxetan-3-yl)methyl)-8-methyl-6,7,8,9-tetrahydro-3H-pyrazolo[4,3-f]isoquinoline]: the DC50 worked out at 0.23 nM.

On to `C[C@@H]1Cc2c(ccc3[nH]ncc23)[C@@H](c2c(F)cc(OCCN3CC(CF)C3)cc2F)N1CC(F)CF` (single isomer, unassigned) [Example 34], for which the DC50 stood at 0.28 nM.

Turning to `CC(C)(F)CN1C(c2c(F)cc(OCCN3CC(CF)C3)cc2F)c2ccc3[nH]ncc3c2CC1(C)C` (centres unmarked) [Example 37, 6-(2,6-difluoro-4-(2-(3-(fluoromethyl)azetidin-1-yl)ethoxy)phenyl)-7-(2-fluoro-2-methylpropyl)-8,8-dimethyl-6,7,8,9-tetrahydro-3H-pyrazolo[4,3-f]isoquinoline], the DC50 was 0.16 nM.

Consider `COc1cc(OCCN2CC(CF)C2)ccc1[C@@H]1c2ccc3[nH]ncc3c2C[C@@H](C)N1CC(F)(F)CO` [Example 14, 2,2-difluoro-3-((6S,8R)-6-(4-(2-(3-(fluoromethyl)azetidin-1-yl)ethoxy)-2-methoxyphenyl)-8-methyl-3,6,8,9-tetrahydro-7H-pyrazolo[4,3-f]isoquinolin-7-yl)propan-1-ol], for which the DC50 is 0.15 nM.

With `CC(C)CN1[C@H](c2c(F)cc(OCCN3CC(CF)C3)cc2F)c2ccc3[nH]nc(F)c3c2C[C@H]1C` [Example 44, (6S,8R)-6-(2,6-difluoro-4-(2-(3-(fluoromethyl)azetidin-1-yl)ethoxy)phenyl)-1-fluoro-7-isobutyl-8-methyl-6,7,8,9-tetrahydro-3H-pyrazolo[4,3-f]isoquinoline], the DC50 worked out at 0.42 nM.

With `COCC(C)(F)CN1[C@H](c2ccc(OCCN3CC(CF)C3)cc2OC)c2ccc3[nH]ncc3c2C[C@H]1C` (single isomer, unassigned) [Example 16], the DC50 was 0.44 nM.

Consider `C[C@@H]1Cc2c(ccc3[nH]nc(F)c23)[C@@H](c2c(F)cc(OCCN3CC(CF)C3)cc2F)N1CC1(F)COC1` [Example 43, (6S,8R)-6-(2,6-difluoro-4-(2-(3-(fluoromethyl)azetidin-1-yl)ethoxy)phenyl)-1-fluoro-7-((3-fluorooxetan-3-yl)methyl)-8-methyl-6,7,8,9-tetrahydro-3H-pyrazolo[4,3-f]isoquinoline], for which the DC50 came out at 0.59 nM.

Take `COc1cc(OCCN2CC(CF)C2)ccc1[C@@H]1c2ccc3[nH]ncc3c2C[C@@H](C)N1CC(C)(F)CF` (single isomer, unassigned) [Example 21]: the DC50 was determined as 0.13 nM.

For the molecule `COc1cc(OCCN2CC(CF)C2)ccc1[C@@H]1c2ccc3[nH]ncc3c2C[C@@H](C)N1CC(C)(F)CF` (single isomer, unassigned) [Example 20], the DC50 turned out to be 0.13 nM.

For `COCC(C)(F)CN1[C@H](c2ccc(OCCN3CC(CF)C3)cc2OC)c2ccc3[nH]ncc3c2C[C@H]1C` (single isomer, unassigned) [Example 17], the DC50 came to 0.24 nM.

Regarding `COc1cc(OCCN2CC(CF)C2)cc(F)c1[C@@H]1c2ccc3[nH]ncc3c2C[C@@H](C)N1CC(C)(F)F` [Example 25, (6S,8R)-7-(2,2-difluoropropyl)-6-(2-fluoro-4-(2-(3-(fluoromethyl)azetidin-1-yl)ethoxy)-6-methoxyphenyl)-8-methyl-6,7,8,9-tetrahydro-3H-pyrazolo[4,3-f]isoquinoline], the DC50 was 0.11 nM.

Consider `COc1cc(OCCN2CC(CF)C2)ccc1[C@@H]1c2ccc3[nH]ncc3c2C[C@@H](C)N1CC(F)(F)F` [Example 12, (6S,8R)-6-(4-(2-(3-(fluoromethyl)azetidin-1-yl)ethoxy)-2-methoxyphenyl)-8-methyl-7-(2,2,2-trifluoroethyl)-6,7,8,9-tetrahydro-3H-pyrazolo[4,3-f]isoquinoline], for which the DC50 is 0.051 nM.

Regarding `COc1cc(OCCN2CC(CF)C2)cc(F)c1[C@@H]1c2ccc3[nH]ncc3c2C[C@@H](C)N1CC(F)(F)CF` [Example 27, (6S,8R)-6-(2-fluoro-4-(2-(3-(fluoromethyl)azetidin-1-yl)ethoxy)-6-methoxyphenyl)-8-methyl-7-(2,2,3-trifluoropropyl)-6,7,8,9-tetrahydro-3H-pyrazolo[4,3-f]isoquinoline], the DC50 was determined as 0.059 nM.

Regarding `CC(C)CN1C(c2c(F)cc(OCCN3CC(CF)C3)cc2F)c2ccc3[nH]ncc3c2CC1(C)C` (centres unmarked) [Example 36, 6-(2,6-difluoro-4-(2-(3-(fluoromethyl)azetidin-1-yl)ethoxy)phenyl)-7-isobutyl-8,8-dimethyl-6,7,8,9-tetrahydro-3H-pyrazolo[4,3-f]isoquinoline], the DC50 came to 0.25 nM.

Take `COc1cc(OCCN2CC(CF)C2)ccc1[C@@H]1c2ccc3[nH]ncc3c2C[C@@H](C)N1CC(C)(F)F` [Example 11, (6S,8R)-7-(2,2-difluoropropyl)-6-(4-(2-(3-(fluoromethyl)azetidin-1-yl)ethoxy)-2-methoxyphenyl)-8-methyl-6,7,8,9-tetrahydro-3H-pyrazolo[4,3-f]isoquinoline]: the DC50 came to 0.036 nM.

Still in this experiment, the particulars now being: MCF-7 cells; >90% unless otherwise stated.
In the case of `COc1cc(OCCN2CC(OC)C2)ccc1[C@@H]1c2ccc3[nH]ncc3c2C[C@@H](C)N1CC(C)(C)F` [Example 24, (6S,8R)-7-(2-fluoro-2-methylpropyl)-6-(2-methoxy-4-(2-(3-methoxyazetidin-1-yl)ethoxy)phenyl)-8-methyl-6,7,8,9-tetrahydro-3H-pyrazolo[4,3-f]isoquinoline], the “% downregulation (in brackets) in ER down regulation assay” value is recorded as less than 50%.

With `COCC(C)(F)CN1[C@H](c2ccc(OCCN3CC(CF)C3)cc2OC)c2ccc3[nH]ncc3c2C[C@H]1C` (single isomer, unassigned) [Example 16], the “% downregulation (in brackets) in ER down regulation assay” value is recorded as 56%.
